Test results: PubChem BioAssay AID1418 (Emory University Molecular Libraries Screening Center, 2008)
Calls of active or inactive are those of the source. No rule for the calls is given here.

Target: Induced myeloid leukemia cell differentiation protein Mcl-1 (Homo sapiens) (UniProt Q07820)
Assay: blockers of Bid binding to Mcl-1 – biochemical, TR-FRET, dose response (AID 1418)
Conditions: Mcl-1/Bid peptide binding, TR-FRET (europium/Dy647), 2 hr

Chain of Induced myeloid leukemia cell differentiation protein Mcl-1 (Homo sapiens) (Q07820 whole entry, looked up): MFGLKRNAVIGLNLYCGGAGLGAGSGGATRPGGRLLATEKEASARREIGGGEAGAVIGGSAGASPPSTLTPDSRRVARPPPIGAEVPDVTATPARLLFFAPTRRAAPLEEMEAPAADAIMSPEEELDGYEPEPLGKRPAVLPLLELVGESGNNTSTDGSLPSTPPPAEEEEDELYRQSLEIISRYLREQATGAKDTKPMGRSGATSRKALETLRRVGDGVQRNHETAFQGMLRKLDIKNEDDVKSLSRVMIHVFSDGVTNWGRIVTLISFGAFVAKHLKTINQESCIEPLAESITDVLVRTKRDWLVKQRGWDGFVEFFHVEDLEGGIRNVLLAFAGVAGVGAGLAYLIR

Compound	IC50
CCOC(=O)Cc1csc(NC(=O)CSc2nnnn2-c2ccc(C)c(C)c2)n1	> 54 µM (inactive)
O=C(CN1C(=O)c2cccc3cccc1c23)Nc1ccc(S(=O)(=O)N2CCOCC2)cc1	> 54 µM (inactive)
CCOC(=O)c1c2ccc(OCC(=O)N/N=C/c3ccc(C)cc3)cc2n2ccccc12	6.23 µM
CC1(C(=O)NNC(=O)C2CCCCC2)CC1(Cl)Cl (stereo not drawn)	> 54 µM (inactive)
O=C1N=C2N(CCN3CCCCC3)c3ccccc3N2/C1=C\c1ccc([N+](=O)[O-])o1	> 54 µM (inactive)
Cc1ccc(C(=O)NNC(=O)CCC(=O)Nc2cc(C)on2)cc1	> 54 µM (inactive)
Cc1ccc(-c2ccc(/C=C3/NC(=O)NC3=O)o2)cc1[N+](=O)[O-]	inactive
Cc1nnc(Sc2c(N)n(C)c(=O)[nH]c2=O)s1	> 54 µM (inactive)
O=C(CN1C(=O)/C(=C2\SC(=S)N(C3CCS(=O)(=O)C3)C2=O)c2ccccc21)Nc1ccc(F)cc1 (stereo not drawn)	0.72 µM
C#CCn1cc(/C=N/NC(=O)COc2cccc3cccnc23)c2ccccc21	0.86 µM
CCOc1ccc(C(Nc2cccnc2)c2cc(Cl)c3cccnc3c2O)cc1 (stereo not drawn)	0.51 µM
Fc1ccc(NC(=S)N/N=C/c2cccc(Br)c2)c(F)c1	> 54 µM (inactive)
O=c1oc2ccccc2n1CCn1c2ccccc2c2nc3ccccc3nc21	8.21 µM
O=C(O)CCCN1C(=O)/C(=C\c2ccc(-c3nc4ccccc4s3)o2)SC1=S	0.53 µM
COc1cccc(NC(=O)C(=O)N/N=C/c2cc(C)n(-c3ccc(Cl)c(Cl)c3)c2C)c1	> 54 µM (inactive)
COC(=O)c1cc2sc(Cl)cc2n1CC(=O)Nc1cccc(SC)c1	> 54 µM (inactive)
Oc1ccc(/C=N/Nc2ccnc3cc(Cl)ccc23)c(O)c1	6.69 µM
CNC(=O)CN(C1CCCCC1)S(=O)(=O)c1ccc(OC)c(Cl)c1	> 54 µM (inactive)
O=C(COc1ccc2c(c1)CCC2)N1CCc2ccccc21	> 54 µM (inactive)
COc1cc2cc3c(N)c(C(=O)Nc4sc(C)c(C)c4C#N)sc3nc2cc1OC	0.97 µM
CCOc1cc(C(=S)N2CCOCC2)ccc1O	> 54 µM (inactive)
O=C(N/N=C/c1ccc(-c2ccc(Cl)c(C(=O)O)c2)o1)c1cc2c(ccc3ccccc32)o1	8.18 µM
O=C(COC(=O)CCS(=O)(=O)c1ccc(Cl)cc1)Nc1ncc(Cl)cc1Cl	> 54 µM (inactive)
COc1ccccc1C1C2=C(N=c3s/c(=C/c4cccc(OCC(=O)O)c4)c(=O)n31)c1ccccc1CC2 (stereo not drawn)	11.2 µM
O=C(N/N=C/c1ccc(F)cc1)c1cc(-c2ccco2)nc2ccccc12	3.3 µM

Compound	IC50
O=C(O)[C@@H](c1ccccc1)N1Cc2ccccc2C1=O	0.54 µM
Cc1cccc(NC(=O)C2CCN(c3nc(C)cc(C)n3)CC2)c1	> 54 µM (inactive)
C=C(C(=O)c1ccccc1)C(C(=C)C(=O)c1ccccc1)c1ccc(OC)cc1	> 54 µM (inactive)
CCn1c(-c2cccc(Br)c2)n[nH]c1=S	> 54 µM (inactive)
C#CCOCCOCCOCCNc1nc(N2CCN(C(=O)[C@H](CCCCN)n3cc(C(N)CC(C)C)nn3)CC2)nc(N2CCN(C(=O)[C@H](CCC(=O)O)n3cc(C(N)[C@H](C)CC)nn3)CC2)n1 (stereo partly drawn)	22.2 µM
COC(=O)c1cccc(NC(=S)Nc2cccc(Cl)c2Cl)c1	> 54 µM (inactive)
C=CCOc1c(OC)cc(/C=N/Nc2cccc(C(=O)O)c2)c(Br)c1Br	18.3 µM
Cc1cc(C)c(S(=O)(=O)/N=C2/C=C(Sc3ncn[nH]3)C(=O)c3ccccc32)cc1C	1.19 µM
C=CCn1c(SCc2ccc([N+](=O)[O-])cc2)nnc1C(C)NC(=O)c1ccccc1 (stereo not drawn)	> 54 µM (inactive)
Cc1c(NC(=S)NC(NC(=O)C(C)C)C(Cl)(Cl)Cl)c(=O)n(-c2ccccc2)n1C (stereo not drawn)	> 54 µM (inactive)
c1ccc2c(c1)ncn2CCCCOc1ccc2c(c1)CCC2	> 54 µM (inactive)
O=C(C[n+]1cc(-c2ccccc2)n2c1CCC2)N1c2ccccc2Sc2ccccc21	> 54 µM (inactive)
O=C(Nc1ccc(Cl)cc1)N1CCc2[nH]c3ccccc3c2C1	> 54 µM (inactive)
COc1cccc(C(=O)N2CCN(Cc3ccccn3)CC2)c1OC	> 54 µM (inactive)
CCN1C(=O)c2cccc3c(S(=O)(=O)Nc4ccccc4OC)ccc1c23	> 54 µM (inactive)
CCC(C)[C@H](NC(=O)Nc1ccccc1F)C(=O)O (stereo partly drawn)	> 54 µM (inactive)
N#C/C(=C\c1ccc(N2CCCC2)c([N+](=O)[O-])c1)c1nc2ccccc2[nH]1	21.6 µM
CC(=O)N1CCc2cc(S(=O)(=O)NC(Cc3ccccc3)C(=O)NC3CCCCCC3)ccc21 (stereo not drawn)	> 54 µM (inactive)
COc1cc2c(cc1OC)CN(CC(=O)Nc1ccc(C#N)cc1)CC2	> 54 µM (inactive)
Cc1cccc(NC(=O)C2C(C(=O)O)C3C=CC2C32CC2)c1C (stereo not drawn)	> 54 µM (inactive)
COC(=O)c1c(C)[nH]c(C)c1C(C)=O	0.54 µM
CC(Cc1ccccc1)NCC(=O)Nc1cc(N(C)C)nc2ccccc12 (stereo not drawn)	> 54 µM (inactive)
CCN1CCc2c(OCc3ccc(C(=O)OC)o3)cccc2C1=O	> 54 µM (inactive)
O=C(NC(=S)Nc1ccc2c(c1)OCCO2)c1ccccc1F	> 54 µM (inactive)
O=C(CSc1nc(-c2ccccc2)nc2c1Cc1ccccc1O2)Nc1ccc(C(=O)O)cc1	3.03 µM

Compound	IC50
CN(C)c1ccc(/C=c2\sc3nc(-c4ccccc4)nn3c2=O)cc1	5.15 µM
O=C(NCC1CCCO1)c1cc([N+](=O)[O-])ccc1Cl (stereo not drawn)	> 54 µM (inactive)
c1ccc(Oc2nc3ccccc3n3cccc23)cc1	> 54 µM (inactive)
CC(C)(C)c1cc(-c2csc(Nc3ccccc3)[n+]2Cc2ccc(C(=O)O)cc2)cc(C(C)(C)C)c1O	0.66 µM
Cc1ccc(S(=O)(=O)/N=C2/C=C(Sc3ncn[nH]3)C(=O)c3ccccc32)cc1	2.73 µM
CSC1=N/C(=C\c2ccccc2F)C(=O)S1	> 54 µM (inactive)
COC(=O)c1ccc2nc(Nc3nc4ccc(F)cc4s3)sc2c1	0.49 µM
CCOc1ccc(-c2nnc(-c3ccccc3)n2-c2ccccc2)cc1	inactive
Brc1cccc(OCCOCCn2ccnc2)c1	> 54 µM (inactive)
CCOc1cccc(CNCCO)c1OCc1ccc(Cl)cc1Cl	> 54 µM (inactive)
COc1cc(NS(=O)(=O)c2ccc(NC(=S)NC(=O)c3sc4ccccc4c3Cl)cc2)nc(OC)n1	> 54 µM (inactive)
Cc1cc(N)n(-c2ccc3ccccc3c2)n1	> 54 µM (inactive)
C/C(=N\Nc1cccc(C(=O)O)c1)c1ccc2c(c1)Nc1ccccc1S2	0.76 µM
Cc1nn(Cc2ccccc2)c(C)c1NC(=O)CSc1nc(-c2ccccc2)nc2c1cnn2-c1ccccc1	0.47 µM
CCNc1ccc2noc3c2c1C(=O)c1ccccc1-3	14.7 µM
CCCCCSc1nnc2c(n1)OC(c1cccn1C)N(C(C)=O)c1ccccc1-2 (stereo not drawn)	> 54 µM (inactive)
Cc1ccc(/C=N/NC(=O)c2cc3c(ccc4ccccc43)o2)cc1[N+](=O)[O-]	11.1 µM
CC1CCN(S(=O)(=O)c2cccc(C(=O)Nc3ccccn3)c2)CC1	> 54 µM (inactive)
O=C(O)c1ccccc1NS(=O)(=O)c1ccc(NNC(=S)Nc2ccc(OC(F)F)cc2)c([N+](=O)[O-])c1	0.62 µM
COc1ccccc1NC(=O)C(=O)N/N=C/c1ccc([N+](=O)[O-])s1	> 54 µM (inactive)
CNC(=S)Nc1cc(C)ccc1OC(F)F	> 54 µM (inactive)
COc1cccc(C(=O)Nc2ccc3c(c2)C(=O)c2ccccc2C3=O)c1	2.79 µM
CC(C)C1(C)N=C(c2ncccc2C(=O)O)NC1=O (stereo not drawn)	> 54 µM (inactive)
Cc1cccc2cc(/C=N/NC(=O)CN3CCOCC3)c(Cl)nc12	> 54 µM (inactive)
COC(=O)/C(=N/Nc1ccccc1)N1CCCc2ccccc21	> 54 µM (inactive)

Compound	IC50
CCS(=O)(=O)NCc1ccc2c(c1)cc(C)n2C	> 54 µM (inactive)
O=C(c1ccccc1)N1CCN(Cc2ccccc2Br)CC1	> 54 µM (inactive)
O=C(Nc1ccc(Nc2ccncc2)cc1)c1ccc(Nc2ccnc3ccc([N+](=O)[O-])cc23)cc1[N+](=O)[O-]	1.38 µM
COc1cccc(N2CCN(C(=O)NC3CCCCC3)CC2)c1	> 54 µM (inactive)
Cc1ccc(C)c(OCC(=O)Nc2ccc3c(c2)OCO3)c1C	> 54 µM (inactive)
Cc1ccc(OCc2ccc(C(=O)Nc3nc4ccccc4n3Cc3ccccc3)o2)c([N+](=O)[O-])c1	> 54 µM (inactive)
Cc1cccc(NC(=S)c2nc3ccccc3s2)c1	> 54 µM (inactive)
O=C(NCCc1ccccc1)C1CCN(S(=O)(=O)c2ccc(-c3nn[nH]n3)cc2)CC1	> 54 µM (inactive)
O=C(Cn1c(C(F)(F)F)nc2ccccc21)c1ccc(F)cc1	> 54 µM (inactive)
Cc1ccc(-c2noc(-c3ccccc3C(=O)N3CCN(C)CC3)n2)cc1	> 54 µM (inactive)
Cc1nc2c(c(=O)n1CCC1=CCCCC1)c1nc3ccccc3nc1n2/N=C/c1ccco1	> 54 µM (inactive)
COC(=O)c1ccccc1S(=O)(=O)N1CCn2cccc2C1C (stereo not drawn)	> 54 µM (inactive)
CCOc1ccc(N=C2NC(=O)S/C2=C\c2ccc(O)cc2)cc1	0.84 µM
COc1ccc(-c2cc3nc4ccccc4n3c(N)c2C#N)cc1	2.76 µM
N=C1/C(=C/c2cccn2-c2cccc([N+](=O)[O-])c2)C(=O)N=C2SC=CN12	12.5 µM
COc1ccc(N2C(=O)/C(=C/C=C/c3ccccc3[N+](=O)[O-])C(=O)NC2=S)cc1	1.05 µM
COc1ccccc1C1CC(c2ccccc2)Nc2ncnn21 (stereo not drawn)	> 54 µM (inactive)
CN(C)S(=O)(=O)c1cccc(NC(=O)c2cc3c(=O)n4ccccc4nc3s2)c1	> 54 µM (inactive)
CCc1nnc(NS(=O)(=O)c2ccc(NC(=S)NC(=O)/C=C/c3ccc(C(C)C)cc3)cc2)s1	3.99 µM
COC(=O)/C=C1/SC(=Nc2ccc(C)cc2C)NC1=O	> 54 µM (inactive)
CCCc1nc2oc3cc(OC)ccc3c(=O)c2c(=O)n1CCc1ccccc1	> 54 µM (inactive)
COc1ccc(C2C(C#N)=C(N)OC3=C2C(=O)CCC3)cc1OC (stereo not drawn)	> 54 µM (inactive)
CC(=O)N(/N=C/c1cccc(C)c1)c1nc(-c2ccc(Br)cc2)cs1	> 54 µM (inactive)
